Measured values taken from paper PMC3119665, “A New Drug Design Targeting the Adenosinergic System for Huntington's Disease” (PLoS ONE, 2011).

Experiments:
A1 adenosine receptor = target: T1, A1 adenosine receptor (Homo sapiens, UniProt P30542); experiment: Radioligand binding assay
T1 construct: MDS Pharma Services Taiwan
T1 sequence (P30542 1-326): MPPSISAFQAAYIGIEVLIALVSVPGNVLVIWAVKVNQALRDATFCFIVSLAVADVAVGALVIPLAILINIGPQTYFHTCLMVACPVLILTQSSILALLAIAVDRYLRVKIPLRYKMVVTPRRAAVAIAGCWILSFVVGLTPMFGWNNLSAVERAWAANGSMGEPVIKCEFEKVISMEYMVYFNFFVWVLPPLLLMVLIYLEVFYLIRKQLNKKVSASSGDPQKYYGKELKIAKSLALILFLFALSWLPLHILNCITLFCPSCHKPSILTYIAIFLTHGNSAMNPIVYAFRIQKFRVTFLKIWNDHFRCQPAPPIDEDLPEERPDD

A2B adenosine receptor = target: T2, A2B adenosine receptor (Homo sapiens, UniProt P29275); experiment: Radioligand binding assay
T2 construct: MDS Pharma Services Taiwan
T2 sequence (P29275 1-332): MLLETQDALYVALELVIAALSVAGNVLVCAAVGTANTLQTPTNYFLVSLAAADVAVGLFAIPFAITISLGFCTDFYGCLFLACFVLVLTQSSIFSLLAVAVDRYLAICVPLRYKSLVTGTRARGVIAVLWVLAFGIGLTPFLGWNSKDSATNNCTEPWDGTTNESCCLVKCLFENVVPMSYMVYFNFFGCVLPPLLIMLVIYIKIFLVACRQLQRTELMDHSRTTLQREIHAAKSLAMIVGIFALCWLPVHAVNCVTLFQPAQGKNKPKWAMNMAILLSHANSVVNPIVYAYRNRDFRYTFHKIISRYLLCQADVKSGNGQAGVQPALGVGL

[1] = test system: Adrenergic α 2, Non-Selective; experiment: Radioligand binding panel (Table S1); parameters: species or system rat; conditions: 10 μM T1-11, n 2
Androgen (Testosterone) = experiment: Radioligand binding panel (Table S1); parameters: species or system human; conditions: 10 μM T1-11, n 2
Bradykinin B2 = target: T3, Bradykinin B2 (Homo sapiens, UniProt P30411); experiment: Radioligand binding panel (Table S1); conditions: 10 μM T1-11, n 2
T3 construct: purchased MDS Pharma Services Taiwan
T3 sequence (P30411 whole entry): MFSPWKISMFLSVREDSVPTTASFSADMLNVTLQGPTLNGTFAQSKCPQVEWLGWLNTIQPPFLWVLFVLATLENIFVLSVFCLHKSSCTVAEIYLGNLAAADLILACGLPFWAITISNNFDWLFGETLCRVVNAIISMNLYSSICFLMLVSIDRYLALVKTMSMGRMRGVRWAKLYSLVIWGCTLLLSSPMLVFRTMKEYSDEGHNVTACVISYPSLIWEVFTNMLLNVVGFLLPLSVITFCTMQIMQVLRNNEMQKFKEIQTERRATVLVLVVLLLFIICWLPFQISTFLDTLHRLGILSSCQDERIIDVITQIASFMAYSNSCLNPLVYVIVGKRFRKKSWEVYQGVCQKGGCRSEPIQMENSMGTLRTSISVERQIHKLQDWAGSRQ

[2] = target: T4, Cholecystokinin CCK. (CCK8) (Homo sapiens, UniProt P32239); experiment: Radioligand binding panel (Table S1); conditions: 10 μM T1-11, n 2
T4 construct: purchased MDS Pharma Services Taiwan
T4 sequence (P32239 whole entry): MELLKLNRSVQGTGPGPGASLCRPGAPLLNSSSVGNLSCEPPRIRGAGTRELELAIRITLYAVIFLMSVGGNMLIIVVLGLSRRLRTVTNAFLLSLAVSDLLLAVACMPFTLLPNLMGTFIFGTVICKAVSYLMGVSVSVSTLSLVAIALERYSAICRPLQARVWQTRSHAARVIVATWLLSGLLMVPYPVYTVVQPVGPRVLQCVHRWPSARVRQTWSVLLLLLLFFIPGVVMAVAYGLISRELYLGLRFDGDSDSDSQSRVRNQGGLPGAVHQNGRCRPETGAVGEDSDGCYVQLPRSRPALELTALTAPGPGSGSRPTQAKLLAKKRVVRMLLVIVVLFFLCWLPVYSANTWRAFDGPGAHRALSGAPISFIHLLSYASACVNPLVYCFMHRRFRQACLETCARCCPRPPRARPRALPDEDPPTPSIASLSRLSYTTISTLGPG

Dopamine D4.7 = target: T5, Dopamine D4.7 (Homo sapiens, UniProt P21917, INS283GLPPDPCGPDCAPPAPGLPQDPCGPDCAPPAPGLPRGPCGPDCAPPAP/S284G); experiment: Radioligand binding panel (Table S1); conditions: 10 μM T1-11, n 2
T5 construct: purchased MDS Pharma Services Taiwan
T5 sequence (P21917 with tags, fused parts or gaps with the stated changes): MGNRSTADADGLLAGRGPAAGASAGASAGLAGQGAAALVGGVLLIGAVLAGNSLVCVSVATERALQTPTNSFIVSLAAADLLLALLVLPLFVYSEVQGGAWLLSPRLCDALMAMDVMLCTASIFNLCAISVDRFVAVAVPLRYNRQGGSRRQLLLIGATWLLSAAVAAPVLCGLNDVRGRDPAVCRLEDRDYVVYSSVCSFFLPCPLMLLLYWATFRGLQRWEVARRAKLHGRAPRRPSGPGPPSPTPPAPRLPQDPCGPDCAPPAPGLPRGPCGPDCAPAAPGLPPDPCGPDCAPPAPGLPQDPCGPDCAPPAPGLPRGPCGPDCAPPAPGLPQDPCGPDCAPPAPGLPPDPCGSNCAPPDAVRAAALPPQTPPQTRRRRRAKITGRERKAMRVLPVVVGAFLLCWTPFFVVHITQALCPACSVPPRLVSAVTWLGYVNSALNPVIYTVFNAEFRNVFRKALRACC

Erythropoietin EPOR = target: T6, Erythropoietin EPOR (Homo sapiens, UniProt P19235); experiment: Radioligand binding panel (Table S1); conditions: 10 μM T1-11, n 2
T6 construct: purchased MDS Pharma Services Taiwan
T6 sequence (P19235 25-508): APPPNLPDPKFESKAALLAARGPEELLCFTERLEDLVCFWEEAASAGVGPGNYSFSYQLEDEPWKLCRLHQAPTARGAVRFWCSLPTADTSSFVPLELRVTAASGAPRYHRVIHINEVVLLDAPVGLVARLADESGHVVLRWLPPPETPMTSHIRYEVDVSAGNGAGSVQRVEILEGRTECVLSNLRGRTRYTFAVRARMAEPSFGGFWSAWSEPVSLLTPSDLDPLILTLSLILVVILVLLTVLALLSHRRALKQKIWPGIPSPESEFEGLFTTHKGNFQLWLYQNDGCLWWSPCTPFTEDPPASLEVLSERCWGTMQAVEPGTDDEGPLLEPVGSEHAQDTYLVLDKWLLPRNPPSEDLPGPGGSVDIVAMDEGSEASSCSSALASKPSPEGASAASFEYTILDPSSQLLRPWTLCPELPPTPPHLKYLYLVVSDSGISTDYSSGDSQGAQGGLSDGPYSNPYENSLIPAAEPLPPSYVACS

Galanin GAL2 = target: T7, Galanin GAL2 (Homo sapiens, UniProt O43603); experiment: Radioligand binding panel (Table S1); conditions: 10 μM T1-11, n 2
T7 construct: purchased MDS Pharma Services Taiwan
T7 sequence (O43603 whole entry): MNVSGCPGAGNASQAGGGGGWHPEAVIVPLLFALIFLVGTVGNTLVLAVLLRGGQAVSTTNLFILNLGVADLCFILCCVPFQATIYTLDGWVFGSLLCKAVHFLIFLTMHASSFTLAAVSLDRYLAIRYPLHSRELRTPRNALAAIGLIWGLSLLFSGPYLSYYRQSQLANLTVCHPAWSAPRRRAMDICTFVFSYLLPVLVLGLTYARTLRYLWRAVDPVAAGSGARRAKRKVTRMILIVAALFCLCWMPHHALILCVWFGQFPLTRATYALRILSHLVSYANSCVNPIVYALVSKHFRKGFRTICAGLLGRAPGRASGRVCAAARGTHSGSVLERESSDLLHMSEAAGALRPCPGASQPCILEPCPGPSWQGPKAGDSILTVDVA

[3] = target: T8, Growth Hormone, Secretagogue (GHS, Ghrelin) (Homo sapiens, UniProt Q92847); experiment: Radioligand binding panel (Table S1); conditions: 10 μM T1-11, n 2
T8 construct: purchased MDS Pharma Services Taiwan
T8 sequence (Q92847 whole entry): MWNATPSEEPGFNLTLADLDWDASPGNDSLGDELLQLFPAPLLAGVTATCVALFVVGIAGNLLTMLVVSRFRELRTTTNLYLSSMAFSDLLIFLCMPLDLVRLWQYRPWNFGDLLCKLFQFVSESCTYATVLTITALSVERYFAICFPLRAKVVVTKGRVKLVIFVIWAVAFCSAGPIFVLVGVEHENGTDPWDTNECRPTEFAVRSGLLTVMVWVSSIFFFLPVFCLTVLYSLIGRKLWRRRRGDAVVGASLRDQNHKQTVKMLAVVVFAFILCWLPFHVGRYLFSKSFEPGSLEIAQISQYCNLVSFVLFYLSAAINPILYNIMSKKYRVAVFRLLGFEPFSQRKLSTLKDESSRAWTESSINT

[4] = test system: Inositol Trisphosphate IP3; experiment: Radioligand binding panel (Table S1); parameters: species or system rat; conditions: 10 μM T1-11, n 2
Melanocortin MC5 = target: T9, Melanocortin MC5 (Homo sapiens, UniProt P33032); experiment: Radioligand binding panel (Table S1); conditions: 10 μM T1-11, n 2
T9 construct: purchased MDS Pharma Services Taiwan
T9 sequence (P33032 whole entry): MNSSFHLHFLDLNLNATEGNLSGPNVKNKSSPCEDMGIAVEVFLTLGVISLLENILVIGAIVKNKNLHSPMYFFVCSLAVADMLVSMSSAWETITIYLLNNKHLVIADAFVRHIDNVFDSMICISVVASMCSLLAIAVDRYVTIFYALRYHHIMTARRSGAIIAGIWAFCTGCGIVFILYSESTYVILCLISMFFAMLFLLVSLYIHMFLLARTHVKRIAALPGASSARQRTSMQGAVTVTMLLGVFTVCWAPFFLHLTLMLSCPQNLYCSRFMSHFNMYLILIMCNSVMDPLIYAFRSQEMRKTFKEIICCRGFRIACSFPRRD

[5] = test system: Melatonin MT, Non-Selective; experiment: Radioligand binding panel (Table S1); parameters: species or system chicken; conditions: 10 μM T1-11, n 2
Neuropeptide Y Y1 = target: T10, Neuropeptide Y Y1 (Homo sapiens, UniProt P25929); experiment: Radioligand binding panel (Table S1); conditions: 10 μM T1-11, n 2
T10 construct: purchased MDS Pharma Services Taiwan
T10 sequence (P25929 whole entry): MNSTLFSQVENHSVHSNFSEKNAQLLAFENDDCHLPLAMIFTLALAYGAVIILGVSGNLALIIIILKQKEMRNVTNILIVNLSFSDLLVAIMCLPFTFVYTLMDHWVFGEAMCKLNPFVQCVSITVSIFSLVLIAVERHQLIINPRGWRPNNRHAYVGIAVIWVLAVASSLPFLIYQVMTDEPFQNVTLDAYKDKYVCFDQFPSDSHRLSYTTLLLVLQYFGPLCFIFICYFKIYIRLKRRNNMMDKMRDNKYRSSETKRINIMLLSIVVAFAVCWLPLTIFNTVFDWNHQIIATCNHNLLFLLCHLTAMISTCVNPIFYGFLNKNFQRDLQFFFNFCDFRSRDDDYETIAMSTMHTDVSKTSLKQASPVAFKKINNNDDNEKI

Opiate δ (OP1, DOP) = target: T11, Opiate δ (OP1, DOP) (Homo sapiens, UniProt P41143); experiment: Radioligand binding panel (Table S1); conditions: 10 μM T1-11, n 2
T11 construct: purchased MDS Pharma Services Taiwan
T11 sequence (P41143 whole entry): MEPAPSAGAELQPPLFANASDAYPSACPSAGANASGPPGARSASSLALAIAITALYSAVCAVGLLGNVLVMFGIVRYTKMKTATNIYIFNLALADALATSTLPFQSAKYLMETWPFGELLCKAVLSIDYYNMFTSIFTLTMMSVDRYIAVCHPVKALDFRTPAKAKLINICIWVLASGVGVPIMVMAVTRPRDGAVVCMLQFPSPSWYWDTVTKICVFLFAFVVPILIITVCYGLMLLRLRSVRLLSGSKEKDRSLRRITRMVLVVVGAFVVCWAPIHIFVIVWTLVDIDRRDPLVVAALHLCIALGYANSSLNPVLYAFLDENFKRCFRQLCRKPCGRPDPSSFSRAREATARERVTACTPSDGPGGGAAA

[6] = target: T12, Serotonin (5-Hydroxytryptamine) 5-HT1B (Rattus norvegicus, UniProt P28564); experiment: Radioligand binding panel (Table S1); conditions: 10 μM T1-11, n 2
T12 construct: purchased MDS Pharma Services Taiwan
T12 sequence (P28564 whole entry): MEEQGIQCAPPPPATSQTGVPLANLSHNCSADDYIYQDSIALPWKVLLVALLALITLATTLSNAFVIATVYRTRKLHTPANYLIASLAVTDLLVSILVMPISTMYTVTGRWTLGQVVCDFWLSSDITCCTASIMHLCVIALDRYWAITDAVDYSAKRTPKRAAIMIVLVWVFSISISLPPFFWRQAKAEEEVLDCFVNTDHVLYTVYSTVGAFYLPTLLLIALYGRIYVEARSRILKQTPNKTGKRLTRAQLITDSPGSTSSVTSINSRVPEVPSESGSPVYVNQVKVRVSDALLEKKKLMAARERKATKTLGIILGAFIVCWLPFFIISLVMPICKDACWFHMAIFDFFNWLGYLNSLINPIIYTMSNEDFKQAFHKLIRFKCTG

Tachykinin NK2 = target: T13, Tachykinin NK2 (Homo sapiens, UniProt P21452); experiment: Radioligand binding panel (Table S1); conditions: 10 μM T1-11, n 2
T13 construct: purchased MDS Pharma Services Taiwan
T13 sequence (P21452 whole entry): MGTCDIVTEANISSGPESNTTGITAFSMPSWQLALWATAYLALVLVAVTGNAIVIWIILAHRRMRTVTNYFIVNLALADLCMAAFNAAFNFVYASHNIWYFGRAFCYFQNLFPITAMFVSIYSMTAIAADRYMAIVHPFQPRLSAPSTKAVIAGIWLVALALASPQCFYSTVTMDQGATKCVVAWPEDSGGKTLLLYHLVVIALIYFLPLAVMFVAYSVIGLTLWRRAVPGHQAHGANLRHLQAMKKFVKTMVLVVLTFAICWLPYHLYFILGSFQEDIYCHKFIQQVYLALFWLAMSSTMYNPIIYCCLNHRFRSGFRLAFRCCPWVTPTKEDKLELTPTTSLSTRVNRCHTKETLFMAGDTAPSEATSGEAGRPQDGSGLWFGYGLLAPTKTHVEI

[7] = test system: Thyrotropin Releasing Hormone (TRH); experiment: Radioligand binding panel (Table S1); parameters: species or system rat; conditions: 10 μM T1-11, n 2
Vasopressin V1B = target: T14, Vasopressin V1B (Homo sapiens, UniProt P47901); experiment: Radioligand binding panel (Table S1); conditions: 10 μM T1-11, n 2
T14 construct: purchased MDS Pharma Services Taiwan
T14 sequence (P47901 whole entry): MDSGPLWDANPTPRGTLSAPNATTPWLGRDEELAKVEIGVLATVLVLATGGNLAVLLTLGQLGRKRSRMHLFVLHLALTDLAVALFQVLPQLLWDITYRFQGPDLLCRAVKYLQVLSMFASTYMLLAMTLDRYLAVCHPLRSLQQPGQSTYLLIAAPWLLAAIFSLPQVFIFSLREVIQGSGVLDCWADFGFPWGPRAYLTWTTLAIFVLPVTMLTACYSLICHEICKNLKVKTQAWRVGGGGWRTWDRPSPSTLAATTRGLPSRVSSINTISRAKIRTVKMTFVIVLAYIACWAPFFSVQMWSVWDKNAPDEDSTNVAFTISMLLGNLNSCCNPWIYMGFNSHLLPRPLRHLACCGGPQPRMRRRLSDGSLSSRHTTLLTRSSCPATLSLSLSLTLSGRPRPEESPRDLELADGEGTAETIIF

PC12 cells = experiment: MTT metabolism assay, serum-deprived PC12 cells; assay type: cell-based, rat; conditions: 24 h
Method: Survival was assessed by the 3-(4,5-dimethylthiazol-2-yl)-2,5-diphenyltetrazolium bromide (MTT) metabolism assay as described elsewhere, [65]. In brief, cells grown on 150-mm plates were washed three times with PBS and resuspended in DMEM. Suspended cells (1×10^4 cells) were plated on 96-well plates and treated with or without the indicated reagent. After incubation for 24 h, MTT (0.5 mg/ml) was added to the medium and incubated for 3 h. After discarding the medium, DMSO (100 µl) was then applied to the well to dissolve the formazan crystals derived from the mitochondrial cleavage of the tetrazolium ring by live cells. The absorbance at 570/630 nm in each well was measured on a micro-enzyme-linked immunosorbent assay reader.

mutant Htt aggregates = experiment: Striatal Htt aggregates (filter retardation assay, immunofluorescence); assay type: in vivo; conditions: R6/2 mice, 12 weeks old, 0.05 mg/ml in drinking water
Method: SDS-insoluble mutant Htt aggregates were detected and quantified as described. A filter retardation assay was performed as described previously. Blots were blocked with 5% skim milk in phosphate-buffered saline (PBS) and incubated with an anti-Htt antibody (EM48, 1∶500; Chemicon International, Temecula, CA, USA) at 4°C overnight followed by the corresponding secondary antibody for 1 h at room temperature. Immunoreactive bands were detected by enhanced chemiluminescence (Pierce) and recorded using Kodak XAR-5 film.
Coronal serial sections (20 µm) containing the striatum (interaural 5.34 mm/bregma 1.54 mm to interaural 3.7 mm/bregma −0.1 mm) were immunohistochemically stained as described previously. Brain sections were blocked with normal goat serum and incubated overnight with an anti-Htt antibody (EM48, 1∶500) at 4°C, followed by a 2 h-incubation with a goat anti-mouse IgG conjugated to Alexa Fluor® 568 at room temperature. The nuclei were stained with Hoechst 33258. The patterns of immunostaining were analyzed with a laser confocal microscope (LSM510, Carl Zeiss MicroImaging Inc, Germany). Five different brain sections of each animal were analyzed. At least 2000 cells from each animal were used to quantify the sizes of mHtt aggregates using ImageJ software (http://rsbweb.nih.gov/ij/; Research Services Branch of the National Institute of Mental Health, Bethesda, MD, USA).

[8] = n.s. = not significant, no significant binding at 10 µM

For `OC[C@H]1O[C@@H](n2cnc3c(NCc4ccc(O)cc4)ncnc32)[C@H](O)[C@@H]1O` [T1-11, N ^6-(4-hydroxybenzyl)adenine riboside], the inhibition at 10 µM (A1 adenosine receptor; 10 μM T1-11, n 2) was 23%, the IC50 (A1 adenosine receptor; [8]) was “n.s” and the Ki (A1 adenosine receptor; [8]) was “n.s”. For the same molecule, the inhibition at 10 µM (A2B adenosine receptor; 10 μM T1-11, n 2) was 0%, the IC50 (A2B adenosine receptor; [8]) was “n.s” and the Ki (A2B adenosine receptor; [8]) was “n.s”. For the same molecule, the “% Inhibition” value [1] was 2%, the “% Inhibition” value (Androgen (Testosterone)) was 3% and the inhibition at 10 µM (Bradykinin B2) was -9%. The inhibition at 10 µM [2] was -5%, the inhibition at 10 µM (Dopamine D4.7) was 3% and the inhibition at 10 µM (Erythropoietin EPOR) was 3%. The inhibition at 10 µM (Galanin GAL2) was 0%, the inhibition at 10 µM [3] was -4% and the “% Inhibition” value [4] was 3%. The inhibition at 10 µM (Melanocortin MC5) was 1%, the “% Inhibition” value [5] was -3% and the inhibition at 10 µM (Neuropeptide Y Y1) was 6%. The inhibition at 10 µM (Opiate δ (OP1, DOP)) was 19%, the inhibition at 10 µM [6] was 3% and the inhibition at 10 µM (Tachykinin NK2) was 3%. For the same molecule, the “% Inhibition” value [7] was -4%, the inhibition at 10 µM (Vasopressin V1B) was -18% and the “Protection against serum withdrawal-induced cell death (MTT)” value (PC12 cells) was “protected against serum withdrawal-induced cell death in a dose-dependent manner”. The “Formation of striatal Htt aggregates” value (mutant Htt aggregates) was “markedly reduced the formation of striatal Htt aggregates”.
